# Reference: ChEMBL document CHEMBL3272271, “Folate antagonists. 13. 2,4-Diamino-6-](alpha,alpha,alpha-trifluoro-m-tolyl)thio]quinazoline and related 2,4-diamino-6-[(phenyl- and naphthyl)thio]quinazolines, a unique class of antimetabolites with extraordinary antimalarial and antibacterial effects” (J Med Chem, 1978)
# The source made the active and inactive calls. The rule behind the calls is not given here.
# Columns and labels:
# Escherichia coli = test: Antibacterial activity against Escherichia coli Vogel by gradient plate test; assay type: functional
# Plasmodium gallinaceum [1] = test: Antimalarial activity against sporozoite-induced Plasmodium gallinaceum infected in white leghorn chicken assessed as disease cure from parasite infection at 30 mg/kg, sc administered 72 hrs after infection; assay type: functional, organism-based; parameters: dose 30 mg/kg
# Plasmodium berghei [2] = test: Antimalarial activity against Plasmodium berghei infected in mouse assessed as disease cure from parasite infection at 640 mg/kg, sc administered 72 hrs after infection; assay type: functional, organism-based; parameters: dose 640 mg/kg
# Staphylococcus aureus [3] = test: Antibacterial activity against drug-resistant Staphylococcus aureus S18713 by gradient plate test; assay type: functional
# [4] = tested on: Mycobacterium tuberculosis; test: Antibacterial activity against Mycobacterium tuberculosis H37Ra by gradient plate test; assay type: functional
# Pseudomonas aeruginosa = test: Antibacterial activity against Pseudomonas aeruginosa 28 by gradient plate test; assay type: functional
# Plasmodium berghei [5] = test: Antimalarial activity against Plasmodium berghei infected in mouse assessed as increase in mean survival days of host at 40 mg/kg, sc administered 72 hrs after infection relative to control; assay type: functional; settings: route subcutaneous
# Plasmodium gallinaceum [6] = test: Antimalarial activity against sporozoite-induced Plasmodium gallinaceum infected in white leghorn chicken assessed as disease cure from parasite infection at 15 mg/kg, sc administered 72 hrs after infection; assay type: functional, organism-based; parameters: dose 15 mg/kg
# Plasmodium gallinaceum [7] = test: Antimalarial activity against sporozoite-induced Plasmodium gallinaceum infected in white leghorn chicken assessed as disease cure from parasite infection at 60 mg/kg, sc administered 72 hrs after infection; assay type: functional, organism-based; parameters: dose 60 mg/kg
# Gallus gallus [8] = test: Toxicity in sporozoite-induced Plasmodium gallinaceum infected white leghorn chicken assessed as mortality at 60 mg/kg, sc administered 72 hrs after infection measured up to 6 days; assay type: organism-based; parameters: dose 60 mg/kg, route subcutaneous; settings: in vivo
# Staphylococcus aureus [9] = test: Antibacterial activity against Staphylococcus aureus UC-96 by gradient plate test; assay type: functional
# Shigella sonnei = test: Antibacterial activity against Shigella sonnei C-10 by gradient plate test; assay type: functional
# Plasmodium gallinaceum [10] = test: Antimalarial activity against sporozoite-induced Plasmodium gallinaceum infected in white leghorn chicken assessed as disease cure from parasite infection at 120 mg/kg, sc administered 72 hrs after infection; assay type: functional, organism-based; parameters: dose 120 mg/kg
# Gallus gallus [11] = test: Toxicity in sporozoite-induced Plasmodium gallinaceum infected white leghorn chicken assessed as mortality at 15 mg/kg, sc administered 72 hrs after infection measured up to 6 days; assay type: organism-based; parameters: dose 15 mg/kg, route subcutaneous; settings: in vivo
# Plasmodium gallinaceum [12] = test: Antimalarial activity against sporozoite-induced Plasmodium gallinaceum infected in white leghorn chicken assessed as disease cure from parasite infection at 240 mg/kg, sc administered 72 hrs after infection; assay type: functional, organism-based; parameters: dose 240 mg/kg
# Plasmodium berghei [13] = test: Antimalarial activity against Plasmodium berghei infected in mouse assessed as disease cure from parasite infection at 80 mg/kg, sc administered 72 hrs after infection; assay type: functional, organism-based; parameters: dose 80 mg/kg
# Gallus gallus [14] = test: Toxicity in sporozoite-induced Plasmodium gallinaceum infected white leghorn chicken assessed as mortality at 30 mg/kg, sc administered 72 hrs after infection measured up to 6 days; assay type: organism-based; parameters: dose 30 mg/kg, route subcutaneous; settings: in vivo
# Gallus gallus [15] = test: Toxicity in sporozoite-induced Plasmodium gallinaceum infected white leghorn chicken assessed as mortality at 480 mg/kg, sc administered 72 hrs after infection measured up to 6 days; assay type: organism-based; parameters: dose 480 mg/kg, route subcutaneous; settings: in vivo
# Gallus gallus [16] = test: Toxicity in sporozoite-induced Plasmodium gallinaceum infected white leghorn chicken assessed as mortality at 120 mg/kg, sc administered 72 hrs after infection measured up to 6 days; assay type: organism-based; parameters: dose 120 mg/kg, route subcutaneous; settings: in vivo
# Plasmodium gallinaceum [17] = test: Antimalarial activity against sporozoite-induced Plasmodium gallinaceum infected in white leghorn chicken assessed as disease cure from parasite infection at 480 mg/kg, sc administered 72 hrs after infection; assay type: functional, organism-based; parameters: dose 480 mg/kg
# Plasmodium berghei [18] = test: Antimalarial activity against Plasmodium berghei infected in mouse assessed as increase in mean survival days of host at 20 mg/kg, sc administered 72 hrs after infection relative to control; assay type: functional; settings: route subcutaneous
# Plasmodium berghei [19] = test: Antimalarial activity against Plasmodium berghei infected in mouse assessed as increase in mean survival days of host at 10 mg/kg, sc administered 72 hrs after infection relative to control; assay type: functional; settings: route subcutaneous
# Plasmodium berghei [20] = test: Antimalarial activity against Plasmodium berghei infected in mouse assessed as disease cure from parasite infection at 160 mg/kg, sc administered 72 hrs after infection; assay type: functional, organism-based; parameters: dose 160 mg/kg
# Enterococcus faecalis = test: Antibacterial activity against Streptococcus faecalis MGH-2 by gradient plate test; assay type: functional
# Plasmodium berghei [21] = test: Antimalarial activity against Plasmodium berghei infected in mouse assessed as increase in mean survival days of host at 80 mg/kg, sc administered 72 hrs after infection relative to control; assay type: functional; settings: route subcutaneous
# Plasmodium berghei [22] = test: Antimalarial activity against Plasmodium berghei infected in mouse assessed as disease cure from parasite infection at 320 mg/kg, sc administered 72 hrs after infection; assay type: functional, organism-based; parameters: dose 320 mg/kg
# Gallus gallus [23] = test: Toxicity in sporozoite-induced Plasmodium gallinaceum infected white leghorn chicken assessed as mortality at 240 mg/kg, sc administered 72 hrs after infection measured up to 6 days; assay type: organism-based; parameters: dose 240 mg/kg, route subcutaneous; settings: in vivo
# Plasmodium gallinaceum [24] = test: Antimalarial activity against sporozoite-induced Plasmodium gallinaceum infected in white leghorn chicken assessed as increase in mean survival days of host at 120 mg/kg, sc administered 72 hrs after infection relative to control; assay type: functional; settings: route subcutaneous
# Plasmodium gallinaceum [25] = test: Antimalarial activity against sporozoite-induced Plasmodium gallinaceum infected in white leghorn chicken assessed as increase in mean survival days of host at 240 mg/kg, sc administered 72 hrs after infection relative to control; assay type: functional; settings: route subcutaneous
# Plasmodium berghei [26] = test: Ratio of quinine hydrochloride SD90 to compound SD90 for trophozoite-induced Plasmodium berghei infected in mouse assessed as daily dose required to suppression of 90% parasite infection administered with diet for 6 days; assay type: functional
# Plasmodium berghei [27] = test: Antimalarial activity against Plasmodium berghei infected in mouse assessed as increase in mean survival days of host at 160 mg/kg, sc administered 72 hrs after infection relative to control; assay type: functional; settings: route subcutaneous
# Plasmodium gallinaceum [28] = test: Antimalarial activity against sporozoite-induced Plasmodium gallinaceum infected in white leghorn chicken assessed as increase in mean survival days of host at 30 mg/kg, sc administered 72 hrs after infection relative to control; assay type: functional; settings: route subcutaneous
# Plasmodium gallinaceum [29] = test: Antimalarial activity against sporozoite-induced Plasmodium gallinaceum infected in white leghorn chicken assessed as increase in mean survival days of host at 15 mg/kg, sc administered 72 hrs after infection relative to control; assay type: functional; settings: route subcutaneous
# Plasmodium gallinaceum [30] = test: Antimalarial activity against sporozoite-induced Plasmodium gallinaceum infected in white leghorn chicken assessed as increase in mean survival days of host at 7.5 mg/kg, sc administered 72 hrs after infection relative to control; assay type: functional; settings: route subcutaneous
# Plasmodium gallinaceum [31] = test: Antimalarial activity against sporozoite-induced Plasmodium gallinaceum infected in white leghorn chicken assessed as increase in mean survival days of host at 60 mg/kg, sc administered 72 hrs after infection relative to control; assay type: functional; settings: route subcutaneous
# Plasmodium berghei [32] = test: Antimalarial activity against trophozoite-induced Plasmodium berghei infected in mouse assessed as daily dose required to suppression of 90% parasite infection administered with diet for 6 days; assay type: functional
smiles,measurement,setting,value
Cc1cc(Sc2ccc3nc(N)nc(N)c3c2)ccc1Br,MIC,Escherichia coli,20 µg/mL
same,Activity,Plasmodium gallinaceum [1],Active
same,Activity,Plasmodium berghei [2],Active
same,MIC,Staphylococcus aureus [3],10 µg/mL
same,MIC,[4],> 25 µg/mL
same,MIC,Pseudomonas aeruginosa,> 25 µg/mL
same,MST,Plasmodium berghei [5],7.7 days
same,Activity,Plasmodium gallinaceum [6],Active
same,Activity,Plasmodium gallinaceum [7],Active
same,Activity,Gallus gallus [8],Toxic
same,MIC,Staphylococcus aureus [9],5 µg/mL
same,MIC,Shigella sonnei,20 µg/mL
same,Activity,Plasmodium gallinaceum [10],Active
same,Activity,Gallus gallus [11],Toxic
same,Activity,Plasmodium gallinaceum [12],Active
same,Activity,Plasmodium berghei [13],Active
same,Activity,Gallus gallus [14],Toxic
same,Activity,Gallus gallus [15],Toxic
same,Activity,Gallus gallus [16],Toxic
same,Activity,Plasmodium gallinaceum [17],Active
same,MST,Plasmodium berghei [18],3.5 days
same,MST,Plasmodium berghei [19],1.9 days
same,Activity,Plasmodium berghei [20],Active
same,MIC,Enterococcus faecalis,10 µg/mL
same,MST,Plasmodium berghei [21],11.9 days
same,Activity,Plasmodium berghei [22],Active
same,Activity,Gallus gallus [23],Toxic
CC(=O)O.Nc1nc(N)c2cc(NCc3ccc(Cl)c(Cl)c3)ccc2n1,MST,Plasmodium gallinaceum [24],0 days
same,MST,Plasmodium gallinaceum [25],0 days
same,Ratio,Plasmodium berghei [26],7.9
same,MST,Plasmodium berghei [27],9.9 days
same,MST,Plasmodium gallinaceum [28],0 days
same,MST,Plasmodium berghei [5],7.1 days
same,MST,Plasmodium gallinaceum [29],3.1 days
same,MST,Plasmodium gallinaceum [30],2.3 days
same,MST,Plasmodium gallinaceum [31],0 days
same,Activity,Gallus gallus [15],Toxic
same,MST,Plasmodium berghei [18],2.5 days
same,MST,Plasmodium berghei [19],0.7 days
same,SD90,Plasmodium berghei [32],9.5 mg/kg/day
same,MST,Plasmodium berghei [21],12.9 days
